We go through 21 compounds from patent publication US7919508B2, “3-piperidinylisochroman-5-ols as dopamine agonists” (Aventis Pharmaceuticals Inc., priority 2004, dated 2011).

Structures can show the parent of a compound that is named as a salt. Bounds are passed on as bounds.

Experiment [1] deals with T1, human dopamine D1 receptor (Homo sapiens, UniProt P21728).
T1 construct: A 1.4 Kb Hind III to Xho I fragment was subcloned into the vector pMMLV; expressed in transfected cells; host or cells: CHO cells, clone CHO-D1M#9 (plasmid pHD1MMLV), membranes
Description: [3H]-SCH-23390 binding to cloned human dopamine D1 receptors (CHO cell membranes). As to conditions: competitive binding, [3H]-SCH-23390, cloned human D1 in CHO membranes; read-out: D1 affinity Ki. The procedure: [^3H]-SCH-23390 Binding to Cloned Human Dopamine D1 Receptors
Determination of relative binding affinity of potential neuropsychiatric and other agents for the human dopamine D1 receptor.
The human D, cDNA was obtained from the laboratory of Dr. Marc Caron in the vector pCMV5. A 1.4 Kb Hind III to Xho I fragment was subcloned into the vector pMMLV. The plasmid pHD1MMLV was then sequenced completely. Transient transfections in COS-7 cells were performed and D1 specific binding was obtained. The construct pHD1MMLV was then transfected stably into CHO cells and 72 G418-resistant clones were isolated. High expressors were identified by mRNA dot blot analysis. Six high expressors were further characterized by binding and then clone CHO-D1M#9 was chosen for detailed pharmacological characterization. This clone was then grown in suspension culture for the purpose of obtaining enough protein to accommodate several months of screening.
B. Cell Culture Conditions
• 1. […] Cells are transferred to suspension culture when at least […] are available (this allows for 300,000 cells/ml in a 50 ml spinner flask; this is the ideal suspension density). Cells are removed from flasks with trypsin, spun down at 1000×G and resuspended the pellet in fresh medium: • 50% CHO-SFM-II+50% Ham's F12 w/10% FBS (final FBS conc. 5%)+400 μg/ml G418+1% P/S. • 3. After the transfer to suspension culture, growth is monitored and cell viability is assessed using trypan blue exclusion. Total and viable cell count on 5 sectors of the hemocytometer are recorded. When the viable cell density reaches 600,000 cell/ml, the volume is doubled. • 4. After 1 week of growth in the 50/50 medium, the cells are spun down and transferred to a new spinner flask and replaced with 75% CHO-SFM II/25% Ham's F12+10% FBS plus the pen-strep and G418. Thereafter every 3 days, the medium is replaced with new medium containing a decreasing amount of FBS as follows:
• 5. The final maintenance culturing medium is made up as follows: • A stock mixture of 10 ml of pen-strep, 0.5 ml of […] (active; final concentration: 200 μg/ml) G418 and 1 ml of FBS are mixed and filtered and refrigerated. A volume (11.5 ml) of this mixture is added to a freshly opened 1 L bottle of CHO-SFM II. C. Membrane Preparation
Cells are harvested into 250 ml centrifuge tubes and spun down at 1200×G. The medium is removed and 100 ml PBS (phosphate-buffered saline) is added to each centrifuge tube; cells are resuspended and spun down again. The PBS is removed and the final pellet is homogenized with a polytron on ice at a medium setting.
The membrane suspension is diluted in water and samples (10, 50 and 100 μl; q.s. to 100 μl with water) are diluted with 100 μl of 1% SDS. The sample is vortexed and allowed to stand for 5 min. Two aliquots each of the solubilized protein sample are placed in clean 13×100 test tubes for the assay. Instructions are followed as outlined in the BioRad DC protein determination kit (Catalog # 500-0112). OD readings that fall between 0.1-0.5 (mid-range of standard curve) should typically be used for calculations. Protein concentrations are calculated from a standard curve using bovine serum albumin as standard by linear regression and interpolation.
Following cell harvesting and protein determination, the homogenate is diluted with 10% DMSO to the correct volume based on Bmax and relative size of individual experiments to be conducted. The concentrated protein is stored in cryogenic vials in aliquots of 1-1.5 ml. Samples may be stored in −80° C. freezer or in liquid nitrogen.

For experiment [2], the target named is human dopamine D2Long (D2L) receptors (Homo sapiens, UniProt P14416).
Chain of human dopamine D2Long (D2L) receptors (P14416 whole entry): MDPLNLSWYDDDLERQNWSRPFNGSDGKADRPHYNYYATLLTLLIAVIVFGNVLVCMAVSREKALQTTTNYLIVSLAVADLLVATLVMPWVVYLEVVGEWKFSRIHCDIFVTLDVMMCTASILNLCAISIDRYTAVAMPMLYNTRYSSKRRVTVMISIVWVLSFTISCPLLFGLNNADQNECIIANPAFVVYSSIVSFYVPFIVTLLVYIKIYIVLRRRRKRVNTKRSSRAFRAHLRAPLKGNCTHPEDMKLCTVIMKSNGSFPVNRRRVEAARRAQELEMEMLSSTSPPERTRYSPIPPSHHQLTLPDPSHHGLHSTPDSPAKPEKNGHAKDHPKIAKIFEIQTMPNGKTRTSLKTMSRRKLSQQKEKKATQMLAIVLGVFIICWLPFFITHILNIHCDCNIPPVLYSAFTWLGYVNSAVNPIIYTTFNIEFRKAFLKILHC

T1 sequence (P21728 whole entry, the tested form may be a part): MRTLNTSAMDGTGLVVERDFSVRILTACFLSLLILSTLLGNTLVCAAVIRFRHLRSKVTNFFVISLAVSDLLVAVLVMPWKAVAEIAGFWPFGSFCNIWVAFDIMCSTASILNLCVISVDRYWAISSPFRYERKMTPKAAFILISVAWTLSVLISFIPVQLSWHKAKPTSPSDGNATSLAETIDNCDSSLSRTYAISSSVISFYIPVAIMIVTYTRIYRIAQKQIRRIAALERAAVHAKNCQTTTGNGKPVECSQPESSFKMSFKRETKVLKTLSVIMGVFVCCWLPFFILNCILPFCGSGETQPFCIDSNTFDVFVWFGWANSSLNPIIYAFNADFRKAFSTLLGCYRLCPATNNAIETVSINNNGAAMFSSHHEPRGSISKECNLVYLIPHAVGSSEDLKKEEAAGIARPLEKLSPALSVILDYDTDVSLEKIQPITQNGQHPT

As to `Cc1ccc2c(c1O)C[C@@H](C1CCN(Cc3cc(F)cc(C(F)(F)F)c3)CC1)O[C@H]2CN` [Example 84, (1R,3S)-1-Aminomethyl-3-[1-(3-fluoro-5-trifluoromethyl-benzyl)-piperidin-4-yl]-6-methyl-isochroman-5-ol dihydrochloride], the Ki in experiment [1] came out at 33 nM; in experiment [2], 450 nM.

`CNC[C@@H]1O[C@H](C2CCN(CC3CCCCC3)CC2)Cc2c1ccc(C)c2O` [Example 96, (1R,3S)-3-(1-Cyclohexylmethyl-piperidin-4-yl)-6-methyl-1-methylaminomethyl-isochroman-5-ol dihydrochloride]: the figures for the Ki in experiment [1] and in experiment [2] were 265 nM and 552 nM, respectively.

For `Cc1ccc2c(c1O)C[C@@H](C1CCN(C(=O)OCc3ccccc3)CC1)O[C@H]2CN` [Example 122, 4-((1R,3S)-1-Aminomethyl-5-hydroxy-6-methyl-isochroman-3-yl)-piperidine-1-carboxylic acid benzyl ester hydrochloride], the Ki in experiment [1] amounted to 92 nM; in experiment [2] it was 751 nM.

Regarding `Cc1ccc2c(c1O)C[C@@H](C1CCN(C(=O)Nc3ccccc3O)CC1)O[C@H]2CN` [Example 127, 4-((1R,3S)-1-Aminomethyl-5-hydroxy-6-methyl-isochroman-3-yl)-piperidine-1-carboxylic acid (2-hydroxy-phenyl)-amide hydrochloride], the Ki in experiment [1] is 105 nM; in experiment [2], not below 10000 nM.

For `Cc1ccc2c(c1O)C[C@@H](C1CCN(C(=O)N(C)C)CC1)O[C@H]2CN` [Example 132, 4-((1R,3S)-1-Aminomethyl-5-hydroxy-6-methyl-isochroman-3-yl)-piperidine-1-carboxylic acid dimethylamide hydrochloride], the Ki is 256 nM in experiment [1] and not below 100000 nM in experiment [2].

As for `Cc1ccc2c(c1O)C[C@@H](C1CCN(C(=O)N(C(C)C)C(C)C)CC1)O[C@H]2CN` [Example 133, 4-((1R,3S)-1-Aminomethyl-5-hydroxy-6-methyl-isochroman-3-yl)-piperidine-1-carboxylic acid diisopropylamide hydrochloride], the Ki in experiment [1] was 241 nM; in experiment [2], not below 100000 nM.

Regarding `Cc1ccc2c(c1O)C[C@@H](C1CCN(C(=O)N3CCOCC3)CC1)O[C@H]2CN` [Example 134, [4-((1R,3S)-1-Aminomethyl-5-hydroxy-6-methyl-isochroman-3-yl)-piperidin-1-yl]-morpholin-4-yl-methanone hydrochloride], the figures for the inhibitory constant (Ki) in experiment [1] and in experiment [2] were 240 nM and not below 100000 nM, respectively.

Consider `CCN(CC)C(=O)N1CCC([C@@H]2Cc3c(ccc(C)c3O)[C@H](CN)O2)CC1` [Example 136, 4-((1R,3S)-1-Aminomethyl-5-hydroxy-6-methyl-isochroman-3-yl)-piperidine-1-carboxylic acid diethylamide hydrochloride], for which the Ki in experiment [1] is 162 nM; in experiment [2], not below 100000 nM.

Turning to `Cc1ccc2c(c1O)C[C@@H](C1CCN(C(=O)N3c4ccccc4Sc4ccccc43)CC1)O[C@H]2CN` [Example 137, [4-((1R,3S)-1-Aminomethyl-5-hydroxy-6-methyl-isochroman-3-yl)-piperidin-1-yl]-phenothiazin-10-yl-methanone hydrochloride], the results for the inhibitory constant (Ki) in experiment [1] and in experiment [2] were 412 nM and 163 nM, respectively.

`Cc1ccc2c(c1O)C[C@@H](C1CCN(C(=O)N3CCCCC3)CC1)O[C@H]2CN` [Example 138, [4-((1R,3S)-1-Aminomethyl-5-hydroxy-6-methyl-isochroman-3-yl)-piperidin-1-yl]-piperidin-1-yl-methanone hydrochloride]: the Ki in experiment [1] was 198 nM; in experiment [2], not below 100000 nM.

With `Cc1ccc2c(c1O)C[C@@H](C1CCN(S(=O)(=O)c3ccccc3)CC1)O[C@H]2CN` [Example 141, (1R,3S)-1-Aminomethyl-3-(1-benzenesulfonyl-piperidin-4-yl)-6-methyl-isochroman-5-ol hydrochloride], the figures for the inhibition constant Ki in experiment [1] and in experiment [2] were 193 nM and not below 100000 nM, respectively.

As for `Cc1ccc2c(c1O)C[C@@H](C1CCN(S(=O)(=O)c3ccccc3C(F)(F)F)CC1)O[C@H]2CN` [Example 143, (1R,3S)-1-Aminomethyl-6-methyl-3-[1-(2-trifluoromethyl-benzenesulfonyl)-piperidin-4-yl]-isochroman-5-ol hydrochloride], the values for the Ki in experiment [1] and in experiment [2] were 167 nM and 777 nM, respectively.

With `Cc1ccc2c(c1O)C[C@@H](C1CCN(S(=O)(=O)c3ccc(C(C)C)cc3)CC1)O[C@H]2CN` [Example 145, (1R,3S)-1-Aminomethyl-3-[1-(4-isopropyl-benzenesulfonyl)-piperidin-4-yl]-6-methyl-isochroman-5-ol hydrochloride], the Ki worked out at 146 nM in experiment [1] and 288 nM in experiment [2].

For the compound `Cc1ccc2c(c1O)C[C@@H](C1CCN(S(=O)(=O)c3ccc(Cl)cc3)CC1)O[C@H]2CN` [Example 148, (1R,3S)-1-Aminomethyl-3-[1-(4-chloro-benzenesulfonyl)-piperidin-4-yl]-6-methyl-isochroman-5-ol hydrochloride], the results for the Ki in experiment [1] and in experiment [2] were 183 nM and not below 100000 nM, respectively.

In the case of `Cc1ccc2c(c1O)C[C@@H](C1CCN(S(=O)(=O)c3ccc(Cl)cc3Cl)CC1)O[C@H]2CN` [Example 149, (1R,3S)-1-Aminomethyl-3-[1-(2,4-dichloro-benzenesulfonyl)-piperidin-4-yl]-6-methyl-isochroman-5-ol hydrochloride], the inhibitory constant (Ki) in experiment [1] was 213 nM; in experiment [2] it was 589 nM.

In the case of `Cc1ccc2c(c1O)C[C@@H](C1CCN(S(=O)(=O)c3ccc(Cl)c(Cl)c3)CC1)O[C@H]2CN` [Example 150, (1R,3S)-1-Aminomethyl-3-[1-(3,4-dichloro-benzenesulfonyl)-piperidin-4-yl]-6-methyl-isochroman-5-ol hydrochloride], the Ki was 256 nM in experiment [1] and not below 100000 nM in experiment [2].

In the case of `Cc1ccc2c(c1O)C[C@@H](C1CCN(S(=O)(=O)c3ccc(-c4ccccc4)cc3)CC1)O[C@H]2CN` [Example 152, (1R,3S)-1-Aminomethyl-3-[1-(biphenyl-4-sulfonyl)-piperidin-4-yl]-6-methyl-isochroman-5-ol hydrochloride], the Ki in experiment [1] is 169 nM; in experiment [2], not below 100000 nM.

For `CCS(=O)(=O)N1CCC([C@@H]2Cc3c(ccc(C)c3O)[C@H](CN)O2)CC1` [Example 153, (1R,3S)-1-Aminomethyl-3-(1-ethanesulfonyl-piperidin-4-yl)-6-methyl-isochroman-5-ol hydrochloride], the Ki in experiment [1] is 250 nM; in experiment [2] it was not below 100000 nM.

For `CCCCS(=O)(=O)N1CCC([C@@H]2Cc3c(ccc(C)c3O)[C@H](CN)O2)CC1` [Example 154, (1R,3S)-1-Aminomethyl-3-[1-(butane-1-sulfonyl)-piperidin-4-yl]-6-methyl-isochroman-5-ol hydrochloride], the figures for the inhibition constant (Ki) in experiment [1] and in experiment [2] were 270 nM and not below 100000 nM, respectively.

With `Cc1ccc2c(c1O)C[C@@H](C1CCN(S(=O)(=O)C(C)C)CC1)O[C@H]2CN` [Example 155, (1R,3S)-1-Aminomethyl-6-methyl-3-[1-(Propane-2-sulfonyl)-piperidin-4-yl]-isochroman-5-ol hydrochloride], the Ki in experiment [1] was 217 nM; in experiment [2], not below 100000 nM.

Consider `CCCCCCCCS(=O)(=O)N1CCC([C@@H]2Cc3c(ccc(C)c3O)[C@H](CN)O2)CC1` [Example 156, (1R,3S)-1-Aminomethyl-6-methyl-3-[1-(octane-1-sulfonyl)-piperidin-4-yl]-isochroman-5-ol hydrochloride], for which the Ki was 139 nM in experiment [1] and not below 100000 nM in experiment [2].
